Measured values from US8202865B2, “Oxadiazole derivatives” (Merck Serono SA, priority 2007, dated 2012).
Counter-ions that a name gives are not always drawn.

Legend:
S1P1 [1] = target: T1, S1P1 (Homo sapiens, UniProt P21453); assay: 35S-GTPγS binding, S1P1 membranes; type: biochemical; details: membranes from CHO cells expressing S1P1; 60 min 30° C.
T1 construct: expressed in transfected cells; host or cells: CHO cells (membranes)
Summary of the method: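 CHO-cell membranes expressing S1P1 or S1P3 (1-10 μg) incubated with compounds in 20 mM HEPES pH 7.4, 10 mM MgCl2, 140 mM NaCl, saponin, 0.2% BSA, 1.7 μM GDP and [35S]-GTPγS (20 μl of 1.5 nM added), 60 min at 30° C. Bound radioactivity expressed as % of S1P activation.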

S1P1 [2] = target: T1, S1P1; assay: Receptor binding assay, [33P]sphingosine 1-phosphate, membranes, WGA SPA beads; details: membranes from CHO cells expressing S1P1; 25 pM [33P]S1P; 60 min RT
Method: (§1) Receptor binding assay: Membranes were prepared from CHO cells expressing S1P1 or S1P3 for use in ligand and […] binding studies. Cells were suspended in 50 mM TRIS, pH 7.4, 2 mM EDTA, 250 mM Sucrose (buffer A) and 1× Complete protease inhibitor cocktail (Roche), and disrupted at 4° C. by N2 decompression using a cell disruption bomb (Parr Instrument). Following centrifugation at 1000 RPM for 10 min at 4° C., the supernatant was suspended in buffer A and centrifuged again at 19000 RPM for 60 min at 4° C. The pellet was then suspended in 10 mM HEPES, pH 7.4, 1 mM EDTA, 250 mM Sucrose (Buffer B), and 1× Complete EDTA-free protease inhibitor cocktail and homogenized using a potter. Membranes were flash frozen in liquid N2 and stored at −80° C. [33P]sphingosine 1-phosphate (3000 Ci/mmol; American Radiolabeled Chemicals, Inc.) was added to test compounds in DMSO. Membranes and WGA SPA beads (GE Healthcare) were added to give a final volume of 100 μl in 96-well plates with assay concentrations of 25 pM or 10 pM [33P]sphingosine 1-phosphate (respectively for S1P1 or S1P3), 50 mM HEPES, pH 7.5, 5 mM MgCl2, 100 mM NaCl, 0.4% fatty acid-free BSA, 1-5 μg/well of proteins and 100 μg/well of WGA SPA beads. Binding was performed for 60 min at RT on a shaker and bound radioactivity was measured on a PerkinElmer 1450 MicroBeta counter. Specific binding was calculated by subtracting remaining radioactivity in the presence of 1000-fold excess of unlabeled S1P. Binding data were analyzed using the GraphPad Prism program.

S1P3 = target: T2, S1P3 (Homo sapiens, UniProt Q99500); assay: 35S-GTPγS binding, S1P3 membranes; type: biochemical; details: membranes from CHO cells expressing S1P3; 60 min 30° C.
T2 construct: expressed in transfected cells; host or cells: CHO cells (membranes)
T2 sequence (Q99500 whole entry, species assumed): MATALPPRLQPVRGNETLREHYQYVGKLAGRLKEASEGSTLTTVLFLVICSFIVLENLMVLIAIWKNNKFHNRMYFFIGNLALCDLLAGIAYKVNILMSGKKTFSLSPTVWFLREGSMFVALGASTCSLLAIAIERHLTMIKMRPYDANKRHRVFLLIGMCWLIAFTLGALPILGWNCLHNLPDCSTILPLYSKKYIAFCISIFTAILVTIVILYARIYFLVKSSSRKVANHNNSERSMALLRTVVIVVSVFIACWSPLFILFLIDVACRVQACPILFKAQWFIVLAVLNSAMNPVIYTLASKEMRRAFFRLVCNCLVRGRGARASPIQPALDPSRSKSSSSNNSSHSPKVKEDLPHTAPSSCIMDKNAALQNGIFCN
Method: as §1
Measurements of ^35S-GTPγS Binding: Membranes (1 to 10 μg protein) prepared as described above, were incubated in 96-well Scintiplates (PerkinElmer) with test compounds diluted in DMSO, in 180 μl of 20 mM HEPES, pH 7.4, 10 mM MgCl2, 2 μg/well Saponin, 0.2% fatty acid free BSA (Assay buffer), 140 mM NaCl and 1.7 μM GDP. The assay was initiated with the addition of 20 μl of 1.5 nM [35S]-GTPγS (1100 Ci/mmol; GE Healthcare) in assay buffer. After 60 min incubation at 30° C. on a shaker, plates were centrifuged for 10 min at 2000 RPM. Supernatant was discarded and membrane bound radioactivity was measured on a PerkinElmer 1450 MicroBeta counter. Triplicate samples were averaged and expressed as % response relative to S1P activation in absence of compound (n=2).

T1 sequence (P21453 whole entry, species assumed): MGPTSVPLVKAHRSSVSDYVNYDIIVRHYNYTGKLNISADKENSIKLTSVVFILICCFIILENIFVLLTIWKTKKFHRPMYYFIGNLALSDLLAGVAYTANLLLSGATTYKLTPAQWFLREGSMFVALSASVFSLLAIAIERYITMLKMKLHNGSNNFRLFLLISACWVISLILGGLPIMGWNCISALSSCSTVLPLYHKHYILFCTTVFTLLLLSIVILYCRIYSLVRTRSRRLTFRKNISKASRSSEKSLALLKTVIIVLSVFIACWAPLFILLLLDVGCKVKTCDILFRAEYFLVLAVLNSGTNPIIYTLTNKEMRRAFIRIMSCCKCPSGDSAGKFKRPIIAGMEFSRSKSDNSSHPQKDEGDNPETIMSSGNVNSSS

Row | EC50 (S1P1 [1]) [nM] | Ki (S1P1 [2]) [nM] | EC50 (S1P3) [nM] | Structure (SMILES)
1 | 8 | 3 | 274 | COCc1cc(-c2nc(-c3ccc(C(N)=O)c(F)c3)no2)ccc1-c1ccccc1C [Example 179, 2-fluoro-4-{5-[2-(methoxymethyl)-2′-methylbiphenyl-4-yl]-1,2,4-oxadiazol-3-yl}benzamide]
2 | 2.5 | 0.8 | 422 | COCc1cc(-c2nc(-c3ccc(F)c(CN(C)CC(=O)O)c3)no2)ccc1-c1ccccc1C [Example 146, N-(2-fluoro-5-{5-[2-(methoxymethyl)-2′-methylbiphenyl-4-yl]-1,2,4-oxadiazol-3-yl}benzyl)-N-methylglycine, Hydrochloride salt]
3 | 2.1 | 1 | 574 | COCc1cc(-c2nc(-c3cccc(CO)c3)no2)ccc1-c1ccccc1C [Example 189, (3-{5-[2-(methoxymethyl)-2′-methylbiphenyl-4-yl]-1,2,4-oxadiazol-3-yl}phenyl)methanol]
4 | 14 | 11 | 219 | COCc1cc(-c2nc(-c3ccc(OCC(=O)O)c(F)c3)no2)ccc1-c1ccccc1C [Example 166, (2-fluoro-{5-[2-(methoxymethyl)-2′-methylbiphenyl-4-yl]-1,2,4-oxadiazol-3-yl}phenoxy)acetic acid]
5 | 50 | 40 | 5930 | CC1CCCCN1c1ccc(-c2nc(-c3ccc(C(=O)O)c(F)c3)no2)cc1NS(C)(=O)=O (stereo not drawn) [Example 30, 2-fluoro-4-(5-{4-(2-methylpiperidin-1-yl)-3-[(methylsulfonyl)amino]phenyl}-1,2,4-oxadiazol-3-yl)benzoic acid]
6 | 1 | 1.6 | 1720 | COCc1cc(-c2nc(-c3cccc(S(C)(=O)=O)c3)no2)ccc1-c1ccccc1C [Example 194, 5-[2-(methoxymethyl)-2′-methylbiphenyl-4-yl]-3-[3-(methylsulfonyl)phenyl]-1,2,4-oxadiazole]
7 | 4720 | 1500 | > 30000 | O=C(O)c1ccc(-c2noc(-c3ccc(-c4ccccc4Cl)cc3)n2)cc1F [Example 2, 4-[5-(2′-chlorobiphenyl-4-yl)-1,2,4-oxadiazol-3-yl]-2-fluorobenzoic acid]
8 | 0.7 | 0.8 | 214 | COCc1cc(-c2nc(-c3cccc(S(N)(=O)=O)c3)no2)ccc1-c1ccccc1C [Example 170, 3-{5-[2-(methoxymethyl)-2′-methylbiphenyl-4-yl]-1,2,4-oxadiazol-3-yl}benzenesulfonamide]
9 | 57 | 69 | 1410 | CC1CCCCN1c1ccc(-c2nc(-c3ccc(C(=O)O)c(Cl)c3)no2)cc1NS(C)(=O)=O (stereo not drawn) [Example 70, 2-chloro-4-(5-{4-(2-methylpiperidin-1-yl)-3-[(methylsulfonyl)amino]phenyl}-1,2,4-oxadiazol-3-yl)benzoic acid]
10 | 48 | 16 | 4960 | COCc1cc(-c2nc(-c3ccc(C(=O)O)c(F)c3)no2)ccc1-c1cccc(C)c1C [Example 95, 2-fluoro-4-{5-[2-(methoxymethyl)-2′,3′-dimethylbiphenyl-4-yl]-1,2,4-oxadiazol-3-yl}benzoic acid]
11 | 430 | 70 | > 30000 | CC1CCCCN1c1ccc(-c2nc(-c3ccc(C(=O)O)c(F)c3)no2)cc1C#N (stereo not drawn) [Example 29, 4-{5-[3-cyano-4-(2-methylpiperidin-1-yl)phenyl]-1,2,4-oxadiazol-3-yl}-2-fluorobenzoic acid]
12 | 1.3 | 2 | 1150 | COCc1cc(-c2nc(-c3ccc(C(=O)NCCc4nnn[nH]4)c(F)c3)no2)ccc1-c1ccccc1C [Example 177, 2-fluoro-4-{5-[2-(methoxymethyl)-2′-methylbiphenyl-4-yl]-1,2,4-oxadiazol-3-yl}-N-[2-(1H-tetrazol-5-yl)ethyl]benzamide]
13 | 17 | 3.4 | 1420 | COCc1cc(-c2nc(-c3ccc(C(=O)NCCNC(C)=O)c(F)c3)no2)ccc1-c1ccccc1C [Example 174, N-[2-(acetylamino)ethyl]-2-fluoro-4-{5-[2-(methoxymethyl)-2′-methylbiphenyl-4-yl]-1,2,4-oxadiazol-3-yl}benzamide]
14 | 3510 | 330 | > 30000 | Cc1ccccc1-c1ccc(-c2nc(-c3ccc(C(=O)O)cc3F)no2)cc1C [Example 10, 4-[5-(2,2′-dimethylbiphenyl-4-yl)-1,2,4-oxadiazol-3-yl]-3-fluorobenzoic acid]
15 | 834 | 190 | > 30000 | COc1ncccc1-c1ccc(-c2nc(-c3ccc(C(=O)O)c(F)c3)no2)cc1C [Example 28, 2-fluoro-4-{5-[4-(2-methoxypyridin-3-yl)-3-methylphenyl]-1,2,4-oxadiazol-3-yl}benzoic acid]
16 | 115 | 28 | 2780 | COCc1cc(-c2nc(-c3ccc(C(=O)O)c(F)c3)no2)ccc1-c1ccccc1F [Example 81, 2-fluoro-4-{5-[2′-fluoro-2-(methoxymethyl)biphenyl-4-yl]-1,2,4-oxadiazol-3-yl}benzoic acid]
17 | 1100 | 505 | > 20000 | CC1CCCCN1c1ccc(-c2nc(-c3ccc(C(=O)O)cc3F)no2)cc1C(F)(F)F (stereo not drawn) [Example 27, 3-fluoro-4-{5-[4-(2-methylpiperidin-1-yl)-3-(trifluoromethyl)phenyl]-1,2,4-oxadiazol-3-yl}benzoic acid]
18 | 1.1 | 0.8 | 1620 | COCc1cc(-c2nc(-c3cccc(CN(C)CCO)c3)no2)ccc1-c1ccccc1C [Example 186, 2-[(3-{5-[2-(methoxymethyl)-2′-methylbiphenyl-4-yl]-1,2,4-oxadiazol-3-yl}benzyl)(methyl)amino]ethanol, Hydrochloride salt]
19 | 0.6 | 0.8 | 281 | CCc1ccccc1-c1ccc(-c2nc(-c3cccc(CN(C)CC(=O)O)c3)no2)cc1COC [Example 143, N-(3-{5-[2′-ethyl-2-(methoxymethyl)biphenyl-4-yl]-1,2,4-oxadiazol-3-yl}benzyl)-N-methylglycine, hydrochloride salt]
20 | 40 | 4 | 1000 | CC1CCCCN1c1ccc(-c2nc(-c3ccc(OCC(=O)O)c(F)c3)no2)cc1C(F)(F)F (stereo not drawn) [Example 47, (2-fluoro-4-{5-[4-(2-methylpiperidin-1-yl)-3-(trifluoromethyl)phenyl]-1,2,4-oxadiazol-3-yl}phenoxy)acetic acid]
21 | 133 | 65 | > 30000 | Cc1ccccc1-c1ccc(-c2nc(-c3ccc(C(=O)O)c(Cl)c3)no2)cc1C [Example 68, 2-chloro-4-[5-(2,2′-dimethylbiphenyl-4-yl)-1,2,4-oxadiazol-3-yl]benzoic acid]
22 | 197 | 90 | 14900 | Cc1cscc1-c1ccc(-c2nc(-c3ccc(C(=O)O)c(F)c3)no2)cc1C(F)(F)F [Example 23, 2-fluoro-4-{5-[4-(4-methyl-3-thienyl)-3-(trifluoromethyl)phenyl]-1,2,4-oxadiazol-3-yl}benzoic acid]
23 | 341 | 130 | > 30000 | COc1cc(-c2nc(-c3ccc(C(=O)O)c(F)c3)no2)ccc1-c1ccccc1C [Example 13, 2-fluoro-4-[5-(2-methoxy-2′-methylbiphenyl-4-yl)-1,2,4-oxadiazol-3-yl]benzoic acid]
24 | 360 | 172 | > 20000 | Cc1cc(-c2nc(-c3ccc(C(=O)O)cc3F)no2)ccc1-c1cscc1C [Example 26, 3-fluoro-4-{5-[3-methyl-4-(4-methyl-3-thienyl)phenyl]-1,2,4-oxadiazol-3-yl}benzoic acid]
